Data as given in a compilation of properties of binary mixtures (doi:10.1016/j.molliq.2017.08.019).

Experiment: xn = mol fraction of the nth substance listed
Conditions: 100 kPa

CCCC[n+]1ccn(C)c1.O=S(=O)([O-])C(F)(F)F + CCCC[n+]1ccn(C)c1.F[P-](F)(F)(F)(F)F
viscosity [mPa·s]
Conditions	293.15 K	298.15 K	303.15 K	308.15 K	313.15 K	318.15 K	323.15 K	328.15 K
x2 = 0	90.8	76	–	51.7	42.11	35.18	30.02	26.6
x2 = 0.0005	90.9	76	–	51.8	–	35.2	–	26.61
x2 = 0.0006	90.9	76.1	63.6	51.8	–	–	–	26.61
x2 = 0.0007	90.9	–	63.6	51.8	42.14	35.2	30.03	26.61
x2 = 0.0009	90.9	76.1	63.7	51.8	–	35.21	30.04	26.61
x2 = 0.0018	91	–	63.7	51.8	42.17	–	30.05	26.62
x2 = 0.0061	–	76.5	64	52	42.34	35.36	30.15	26.71
x2 = 0.01	91.9	76.9	64.3	52.2	42.5	35.49	30.24	26.79
x2 = 0.0501	96.7	80.5	67.1	54.4	44.11	36.73	31.17	27.59
x2 = 0.0806	100.4	–	–	56.1	45.35	37.69	32.03	28.27
x2 = 0.1	102.9	85.3	–	57.1	46.2	38.32	32.53	28.7
x2 = 0.15	–	90.4	74.7	–	48.4	–	33.86	–
x2 = 0.1999	–	95.8	78.8	–	–	–	35.27	–
x2 = 0.3	132.1	107.5	87.8	69.7	55.5	–	–	33.41
x2 = 0.3999	149.7	120.7	97.7	77	60.9	49.6	41.49	36.06
x2 = 0.5002	169.7	135.6	108.9	85.2	–	54.1	45	38.95
x2 = 0.6	192.3	152.2	121.3	94.1	73.3	58.9	48.8	42.02
x2 = 0.7	–	170.9	135.1	104	80.4	64.2	52.9	45.35
x2 = 0.7995	247	191.8	150.3	114.8	–	70	57.4	48.9
x2 = 0.8997	280	215	167.5	126.9	96.7	–	–	52.8

CCCC[n+]1ccn(C)c1.F[P-](F)(F)(F)(F)F + CCCC[n+]1ccn(C)c1.O=S(=O)([O-])C(F)(F)F
x1 = 1
Conditions	viscosity [mPa·s]
293.15 K	337
298.15 K	257
303.15 K	197.6
308.15 K	148.3
313.15 K	112
323.15 K	71
328.15 K	59.7
